Source: US20230019491A1, “PYRIMIDINE TBK/IKKe INHIBITOR COMPOUNDS AND USES THEREOF” (Merck Patent GmbH, priority 2017, published 2023)
pIC50: −log10 of the molar value. Each block holds one compound with its values, some of them ahead of it.

Legend:
IKKε = target: T1, IKKε (Homo sapiens, UniProt Q14164); assay: IKKε biochemical assay; conditions: 10 point 1:4 dose response, 30 uM top concentration, 90 min at 25° C., LabChip EZ Reader II; read-out: IKKε_IC50
T1 sequence (Q14164 1-716): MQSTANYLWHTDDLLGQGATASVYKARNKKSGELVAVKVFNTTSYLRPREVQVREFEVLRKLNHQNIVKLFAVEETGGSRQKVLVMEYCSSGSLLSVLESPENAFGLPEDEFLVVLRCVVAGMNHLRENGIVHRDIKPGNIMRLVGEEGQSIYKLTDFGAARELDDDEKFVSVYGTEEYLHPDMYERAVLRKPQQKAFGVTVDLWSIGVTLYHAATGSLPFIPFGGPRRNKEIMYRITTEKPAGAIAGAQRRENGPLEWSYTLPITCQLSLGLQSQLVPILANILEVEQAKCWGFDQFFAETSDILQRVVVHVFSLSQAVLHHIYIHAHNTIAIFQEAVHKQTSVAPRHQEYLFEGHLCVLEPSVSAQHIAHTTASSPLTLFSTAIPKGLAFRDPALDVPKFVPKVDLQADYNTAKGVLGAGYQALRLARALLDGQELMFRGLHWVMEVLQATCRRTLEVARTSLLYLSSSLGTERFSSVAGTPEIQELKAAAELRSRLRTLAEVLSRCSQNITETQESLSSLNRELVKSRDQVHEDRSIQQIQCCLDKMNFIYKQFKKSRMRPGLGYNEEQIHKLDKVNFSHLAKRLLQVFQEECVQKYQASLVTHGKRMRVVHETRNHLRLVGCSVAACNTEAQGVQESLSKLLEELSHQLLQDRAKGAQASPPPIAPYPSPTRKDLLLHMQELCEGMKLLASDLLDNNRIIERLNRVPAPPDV
Outline: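 Mobility-shift LabChip read-out followed a 90 min, 25° C. reaction of IKKε with substrate and test compound, with DMSO held at 1% final. Reactions were ended with stop buffer. Wells with 10 uM final staurosporine defined complete inhibition, and DMSO-only wells the uninhibited level.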

TBK1 = target: T2, TBK1 (Homo sapiens, UniProt Q9UHD2); assay: TBK biochemical assay; conditions: 10 point 1:4 dose response, 30 uM top concentration, 90 min at 25° C., LabChip EZ Reader II; read-out: TBK1_IC50
T2 sequence (Q9UHD2 1-729): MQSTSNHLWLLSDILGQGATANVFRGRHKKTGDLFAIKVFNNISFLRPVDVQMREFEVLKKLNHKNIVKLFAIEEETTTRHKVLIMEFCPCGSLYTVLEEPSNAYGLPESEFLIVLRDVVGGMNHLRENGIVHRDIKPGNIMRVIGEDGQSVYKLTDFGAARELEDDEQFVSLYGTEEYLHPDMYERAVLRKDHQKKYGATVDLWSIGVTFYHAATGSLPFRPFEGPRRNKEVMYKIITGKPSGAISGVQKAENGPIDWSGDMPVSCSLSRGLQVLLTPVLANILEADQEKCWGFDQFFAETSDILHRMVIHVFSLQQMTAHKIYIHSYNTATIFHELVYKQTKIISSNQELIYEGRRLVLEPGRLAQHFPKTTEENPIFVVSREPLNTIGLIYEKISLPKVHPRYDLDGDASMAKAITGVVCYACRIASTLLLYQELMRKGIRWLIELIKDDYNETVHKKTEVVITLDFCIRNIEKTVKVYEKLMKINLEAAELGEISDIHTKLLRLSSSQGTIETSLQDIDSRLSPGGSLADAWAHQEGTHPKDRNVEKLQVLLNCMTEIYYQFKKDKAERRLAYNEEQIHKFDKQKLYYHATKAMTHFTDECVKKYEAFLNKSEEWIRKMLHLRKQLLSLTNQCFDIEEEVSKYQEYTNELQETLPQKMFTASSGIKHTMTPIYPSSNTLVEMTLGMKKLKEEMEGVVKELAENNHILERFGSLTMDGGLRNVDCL
Outline: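 Read-out was a Caliper LabChip mobility-shift assay, run after a 90-min, 25 °C reaction of TBK1 with substrate and compounds, quenched with stop buffer. Control wells received staurosporine at 10 uM final.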

SMILES: COc1cc(Nc2nccc(-c3ccc(OC4CCN(C(=O)[C@H](C)O)CC4)c(C#N)c3)n2)cnc1N1CCN(C2COC2)CC1 [Example 320, 2-([1-[(2S)-2-hydroxypropanoyl]piperidin-4-yl]oxy)-5-[2-([5-methoxy-6-[4-(oxetan-3-yl)piperazin-1-yl]pyridin-3-yl]amino)pyrimidin-4-yl]benzonitrile]
pIC50 (IKKε): > 7.00
pIC50 (TBK1): > 7.00

SMILES: CN1CCN(c2ccc(Nc3nccc(-c4ccc(OC5CCOCC5)c(C#N)c4)n3)nc2)CC1 [Example 164, 5-(2-[[5-(4-methylpiperazin-1-yl)pyridin-2-yl]amino]pyrimidin-4-yl)-2-(oxan-4-yloxy)benzonitrile]
pIC50 (IKKε): > 7.00
pIC50 (TBK1): > 7.00

SMILES: COc1nc(Nc2nccc(-c3ccc(O[C@@H]4CCN(C(=O)[C@H](C)O)CC4(F)F)c(C#N)c3)n2)ccc1N1CCN(C2COC2)CC1 [Example 122, 2-[[(4R)-3,3-difluoro-1-[(2S)-2-hydroxypropanoyl]piperidin-4-yl]oxy]-5-[2-([6-methoxy-5-[4-(oxetan-3-yl)piperazin-1-yl]pyridin-2-yl]amino)pyrimidin-4-yl]benzonitrile]
pIC50 (IKKε): > 7.00
pIC50 (TBK1): > 7.00

SMILES: N#Cc1cc(-c2ccnc(Nc3ccc(N4CCN(C5CC5)CC4)cc3)n2)ccc1OC1CCOCC1 [Example 134, 5-{2-[4-(4-Cyclopropyl-piperazin-1-yl)-phenylamino]-pyrimidin-4-yl}-2-(tetrahydro-pyran-4-yloxy)-benzonitrile]
pIC50 (IKKε): > 7.00
pIC50 (TBK1): > 7.00

SMILES: COc1nc(Nc2nccc(-c3ccc(OC4CCN(C(=O)[C@@H]5CC5(F)F)CC4(F)F)c(C#N)c3)n2)ccc1N1CCN(C2COC2)CC1 (stereo partly drawn) [Example 255, 2-[1-((S)-2,2-Difluoro-cyclopropanecarbonyl)-3,3-difluoro-piperidin-4-yloxy]-5-{2-[6-methoxy-5-(4-oxetan-3-yl-piperazin-1-yl)-pyridin-2-ylamino]-pyrimidin-4-yl}-benzonitrile]
pIC50 (IKKε): > 7.00
pIC50 (TBK1): > 7.00

SMILES: COc1cc(Nc2nccc(-c3ccc(OC4CCOCC4)c(C#N)c3)n2)ncc1C(=O)N(C)C [Example 49, 6-([4-[3-cyano-4-(oxan-4-yloxy)phenyl]pyrimidin-2-yl]amino)-4-methoxy-N,N-dimethylpyridine-3-carboxamide]
pIC50 (IKKε): 6.00 to 7.00
pIC50 (TBK1): 6.00 to 7.00

SMILES: CN1CCN(c2ccc(Nc3nccc(-c4ccc(OC5CN(C)C5)c(C#N)c4)n3)nc2)CC1 [Example 81, 2-[(1-methylazetidin-3-yl)oxy]-5-(2-[[5-(4-methylpiperazin-1-yl)pyridin-2-yl]amino]pyrimidin-4-yl)benzonitrile]
pIC50 (IKKε): 5.30 to 6.00
pIC50 (TBK1): 5.30 to 6.00

SMILES: COc1nc(Nc2nccc(-c3ccc(OC4CCN(C(=O)[C@H](C)O)C4)c(C#N)c3)n2)ccc1N1CCN(C2COC2)CC1 (stereo partly drawn) [Example 183, 2-([1-[(2S)-2-hydroxypropanoyl]pyrrolidin-3-yl]oxy)-5-[2-([6-methoxy-5-[4-(oxetan-3-yl)piperazin-1-yl]pyridin-2-yl]amino)pyrimidin-4-yl]benzonitrile]
pIC50 (IKKε): > 7.00
pIC50 (TBK1): > 7.00

SMILES: COc1cc(Nc2nccc(-c3ccc(OC4CCN(C(=O)CO)CC4(F)F)c(C#N)c3)n2)ccn1 (centres unmarked) [Example 326, 2-[[3,3-difluoro-1-(2-hydroxyacetyl)piperidin-4-yl]oxy]-5-[2-[(2-methoxypyridin-4-yl)amino]pyrimidin-4-yl]benzonitrile]
pIC50 (IKKε): > 7.00
pIC50 (TBK1): > 7.00

SMILES: COc1nc(Nc2nccc(-c3ccc(N4CC5(CCNCC5)C4)c(C#N)c3)n2)ccc1N1CCN(C2COC2)CC1 [Example 312, 2-(2,7-Diaza-spiro[3.5]non-2-yl)-5-{2-[6-methoxy-5-(4-oxetan-3-yl-piperazin-1-yl)-pyridin-2-ylamino]-pyrimidin-4-yl}-benzonitrile]
pIC50 (IKKε): 6.00 to 7.00
pIC50 (TBK1): 6.00 to 7.00

SMILES: C[C@H](O)C(=O)N1CCC(Oc2ccc(-c3ccnc(Nc4ccc(C5CCN(C6COC6)C5)cc4)n3)cc2C#N)C(F)(F)C1 (stereo partly drawn) [Example 213, 2-([3,3-difluoro-1-[(2S)-2-hydroxypropanoyl]piperidin-4-yl]oxy)-5-[2-([4-[1-(oxetan-3-yl)pyrrolidin-3-yl]phenyl]amino)pyrimidin-4-yl]benzonitrile]
pIC50 (IKKε): > 7.00
pIC50 (TBK1): > 7.00

SMILES: C[C@H](O)C(=O)N1CC[C@@H](Oc2ccc(-c3ccnc(Nc4ccc(N5CCN(C6COC6)CC5)cc4)n3)cc2C#N)C(F)(F)C1 [Example 140, 2-[[(4R)-3,3-difluoro-1-[(2S)-2-hydroxypropanoyl]piperidin-4-yl]oxy]-5-[2-([4-[4-(oxetan-3-yl)piperazin-1-yl]phenyl]amino)pyrimidin-4-yl]benzonitrile]
pIC50 (IKKε): > 7.00
pIC50 (TBK1): > 7.00

The remaining lines, values ahead:

pIC50 (IKKε): > 7.00
pIC50 (TBK1): > 7.00
SMILES: COc1nc(Nc2nccc(-c3ccc(OC4CCOCC4)c(C#N)c3)n2)ccc1N1CCN(C(C)=O)CC1 [Example 168, 5-(2-[[5-(4-acetylpiperazin-1-yl)-6-methoxypyridin-2-yl]amino]pyrimidin-4-yl)-2-(oxan-4-yloxy)benzonitrile]

pIC50 (IKKε): > 7.00
pIC50 (TBK1): > 7.00
SMILES: COc1nc(Nc2nccc(-c3ccc(OC4CNC4)c(C#N)c3)n2)ccc1N1CCN(C2COC2)CC1 [Example 174, 2-(azetidin-3-yloxy)-5-[2-([6-methoxy-5-[4-(oxetan-3-yl)piperazin-1-yl]pyridin-2-yl]amino)pyrimidin-4-yl]benzonitrile]

pIC50 (IKKε): > 7.00
pIC50 (TBK1): > 7.00
SMILES: COc1nc(Nc2nccc(-c3ccc(O[C@@H]4CCN(C(=O)[C@H](C)O)C[C@H]4F)c(C#N)c3)n2)ccc1N1CCN(C2COC2)CC1 [Example 202, 2-[(3R,4R)-3-Fluoro-1-((S)-2-hydroxy-propionyl)-piperidin-4-yloxy]-5-{2-[6-methoxy-5-(4-oxetan-3-yl-piperazin-1-yl)-pyridin-2-ylamino]-pyrimidin-4-yl}-benzonitrile]

pIC50 (IKKε): > 7.00
pIC50 (TBK1): > 7.00
SMILES: COc1nc(Nc2nccc(-c3ccc(OC4CCOC4)c(C#N)c3)n2)ccc1N1CCN(C2COC2)CC1 (centres unmarked) [Example 162, 5-[2-([6-methoxy-5-[4-(oxetan-3-yl)piperazin-1-yl]pyridin-2-yl]amino)pyrimidin-4-yl]-2-(oxolan-3-yloxy)benzonitrile]

pIC50 (IKKε): > 7.00
pIC50 (TBK1): > 7.00
SMILES: COc1nc(Nc2nccc(-c3ccc(O[C@H]4CCN(C(=O)C(C)O)C[C@H]4F)c(C#N)c3)n2)ccc1N1CCN(C2COC2)CC1 (stereo partly drawn) [Example 190, 2-[[(3R,4S)-3-fluoro-1-(2-hydroxypropanoyl)piperidin-4-yl]oxy]-5-[2-([6-methoxy-5-[4-(oxetan-3-yl)piperazin-1-yl]pyridin-2-yl]amino)pyrimidin-4-yl]benzonitrile]

pIC50 (IKKε): > 7.00
pIC50 (TBK1): > 7.00
SMILES: C[C@H](O)C(=O)N1CCC(Oc2ccc(-c3nc(Nc4ccc(C5CCN(C6COC6)CC5)cc4)ncc3F)cc2C#N)C(F)(F)C1 (stereo partly drawn) [Example 301, 2-({3,3-difluoro-1-[(2S)-2-hydroxypropanoyl]piperidin-4-yl}oxy)-5-[5-fluoro-2-({4-[1-(oxetan-3-yl)piperidin-4-yl]phenyl}amino)pyrimidin-4-yl]benzonitrile]

pIC50 (IKKε): > 7.00
pIC50 (TBK1): > 7.00
SMILES: COc1nc(Nc2nccc(-c3ccc(OC4CCNCC4(F)F)c(C#N)c3)n2)ccc1N1CCN(C)CC1 (centres unmarked) [Example 97, 2-[(3,3-difluoropiperidin-4-yl)oxy]-5-(2-[[6-methoxy-5-(4-methylpiperazin-1-yl)pyridin-2-yl]amino]pyrimidin-4-yl)benzonitrile]
